Drawing on patent US20230271924A1 (published 2023), this text covers melting point for two compounds.

`CCCCCCCCCCCCCC(=O)Oc1cccc2[nH]cc(CCN(C)C)c12` gave a melting point of 58 to 59 °C.

`CCCCCCCC(=O)Oc1cccc2[nH]cc(CCN(C)C)c12` came in with a melting point of 69 to 70 °C.
